Values quoted from earlier work, collected in paper PMC12181400, “Leveraging viral genome sequences and machine learning models for identification of potentially selective antiviral agents” (Communications Chemistry, 2025).
Where a name gives a salt, the structure may show the parent alone. Read-outs that look alike come from different tables or passages of the source.

Key:
Conditions in all cases: cited from earlier work
[1] = test system: cell viability (tox21-car-antagonist-p1)
[2] = test system: cell viability (tox21-ar-mda-kb2-luc-antagonist-p2)
[3] = test system: cell viability (tox21-car-agonist-p1)
[4] = test system: cell viability (tox21-ar-mda-kb2-luc-agonist-p3)
[5] = test system: cell viability (tox21-are-bla-p1)
[6] = test system: cell viability (tox21-ap1-agonist-p1)
[7] = curve rank −9 to 9, 0 = inactive, ref NCATS Tox21 public data browser

CC1(C)Oc2ccc(C#N)cc2[C@@H](N2CCCC2=O)[C@@H]1O [Levcromakalim]
0: tox21-car-antagonist-p1-viability (curve rank) [1] | tox21-ar-mda-kb2-luc-antagonist-p2-viability (curve rank) [2] | tox21-car-agonist-p1-viability (curve rank) [3] | tox21-ar-mda-kb2-luc-agonist-p3-viability (curve rank) [4] | tox21-are-bla-p1-viability (curve rank) [5] | tox21-ap1-agonist-p1-viability (curve rank) [6]

Cc1ccccc1OCC(O)CO (stereo not drawn) [Mephenesin]
0: tox21-car-antagonist-p1-viability (curve rank) [1] | tox21-ar-mda-kb2-luc-antagonist-p2-viability (curve rank) [2] | tox21-car-agonist-p1-viability (curve rank) [3] | tox21-ar-mda-kb2-luc-agonist-p3-viability (curve rank) [4] | tox21-are-bla-p1-viability (curve rank) [5] | tox21-ap1-agonist-p1-viability (curve rank) [6]

CCC1(c2cccc(O)c2)CCCCN(C)C1 (stereo not drawn) [Meptazinol hydrochloride]
0: tox21-car-antagonist-p1-viability (curve rank) [1, 7] | tox21-ar-mda-kb2-luc-antagonist-p2-viability (curve rank) [2, 7] | tox21-car-agonist-p1-viability (curve rank) [3, 7] | tox21-ar-mda-kb2-luc-agonist-p3-viability (curve rank) [4, 7] | tox21-are-bla-p1-viability (curve rank) [5, 7] | tox21-ap1-agonist-p1-viability (curve rank) [6, 7]

Cc1cc(C)cc(OCC2CNC(=O)O2)c1 (stereo not drawn) [Metaxalone]
0: tox21-car-antagonist-p1-viability (curve rank) [1] | tox21-ar-mda-kb2-luc-antagonist-p2-viability (curve rank) [2] | tox21-car-agonist-p1-viability (curve rank) [3] | tox21-ar-mda-kb2-luc-agonist-p3-viability (curve rank) [4] | tox21-are-bla-p1-viability (curve rank) [5] | tox21-ap1-agonist-p1-viability (curve rank) [6]

C[C@](N)(Cc1ccc(O)c(O)c1)C(=O)O [Methyldopa]
0: tox21-car-antagonist-p1-viability (curve rank) [1] | tox21-ar-mda-kb2-luc-antagonist-p2-viability (curve rank) [2] | tox21-car-agonist-p1-viability (curve rank) [3] | tox21-ar-mda-kb2-luc-agonist-p3-viability (curve rank) [4] | tox21-are-bla-p1-viability (curve rank) [5] | tox21-ap1-agonist-p1-viability (curve rank) [6]

CC[C@@H](CO)NC(=O)[C@@H]1C=C2c3cccc4c3c(cn4C)C[C@H]2N(C)C1 [Methysergide]
0: tox21-car-antagonist-p1-viability (curve rank) [1, 7] | tox21-ar-mda-kb2-luc-antagonist-p2-viability (curve rank) [2, 7] | tox21-car-agonist-p1-viability (curve rank) [3, 7] | tox21-ar-mda-kb2-luc-agonist-p3-viability (curve rank) [4, 7] | tox21-are-bla-p1-viability (curve rank) [5, 7] | tox21-ap1-agonist-p1-viability (curve rank) [6, 7]

Cc1cc2c(cc1S(N)(=O)=O)S(=O)(=O)CCC2 [Meticrane]
0: tox21-car-antagonist-p1-viability (curve rank) [1, 7] | tox21-ar-mda-kb2-luc-antagonist-p2-viability (curve rank) [2, 7] | tox21-car-agonist-p1-viability (curve rank) [3, 7] | tox21-ar-mda-kb2-luc-agonist-p3-viability (curve rank) [4, 7] | tox21-are-bla-p1-viability (curve rank) [5, 7] | tox21-ap1-agonist-p1-viability (curve rank) [6, 7]

COCCc1ccc(OCC(O)CNC(C)C)cc1 (stereo not drawn) [Metoprolol tartrate]
0: tox21-car-antagonist-p1-viability (curve rank) [1, 7] | tox21-ar-mda-kb2-luc-antagonist-p2-viability (curve rank) [2, 7] | tox21-car-agonist-p1-viability (curve rank) [3, 7] | tox21-ar-mda-kb2-luc-agonist-p3-viability (curve rank) [4, 7] | tox21-are-bla-p1-viability (curve rank) [5, 7] | tox21-ap1-agonist-p1-viability (curve rank) [6, 7]

CC(C)(C(=O)c1cccnc1)c1cccnc1 [Metyrapone]
0: tox21-car-antagonist-p1-viability (curve rank) [1] | tox21-ar-mda-kb2-luc-antagonist-p2-viability (curve rank) [2] | tox21-car-agonist-p1-viability (curve rank) [3] | tox21-ar-mda-kb2-luc-agonist-p3-viability (curve rank) [4] | tox21-are-bla-p1-viability (curve rank) [5] | tox21-ap1-agonist-p1-viability (curve rank) [6]

COc1ccc(OC)c(C(O)CNC(=O)CN)c1 (stereo not drawn) [Midodrine hydrochloride]
0: tox21-car-antagonist-p1-viability (curve rank) [1] | tox21-ar-mda-kb2-luc-antagonist-p2-viability (curve rank) [2] | tox21-car-agonist-p1-viability (curve rank) [3] | tox21-ar-mda-kb2-luc-agonist-p3-viability (curve rank) [4] | tox21-are-bla-p1-viability (curve rank) [5] | tox21-ap1-agonist-p1-viability (curve rank) [6]

Nc1cc(N2CCCCC2)nc(N)[n+]1[O-] [Minoxidil]
0: tox21-car-antagonist-p1-viability (curve rank) [1] | tox21-ar-mda-kb2-luc-antagonist-p2-viability (curve rank) [2] | tox21-car-agonist-p1-viability (curve rank) [3] | tox21-ar-mda-kb2-luc-agonist-p3-viability (curve rank) [4] | tox21-are-bla-p1-viability (curve rank) [5] | tox21-ap1-agonist-p1-viability (curve rank) [6]

NC(=O)C[S+]([O-])C(c1ccccc1)c1ccccc1 (stereo not drawn) [Modafinil]
0: tox21-car-antagonist-p1-viability (curve rank) [1, 7] | tox21-ar-mda-kb2-luc-antagonist-p2-viability (curve rank) [2, 7] | tox21-car-agonist-p1-viability (curve rank) [3, 7] | tox21-ar-mda-kb2-luc-agonist-p3-viability (curve rank) [4, 7] | tox21-are-bla-p1-viability (curve rank) [5, 7] | tox21-ap1-agonist-p1-viability (curve rank) [6, 7]
